US10793580B2, “Substituted pyrazoloazepin-8-ones and their use as phosphodiesterase inhibitors” (LEO Pharma A/S, priority 2016, dated 2020)

Target: human PDE4D catalytic domain (Homo sapiens (Human), UniProt Q08499)
Assay: PDE4 Assay (TR-FRET, FAM-cAMP cleavage)
Assay type: biochemical
Details: human PDE4D catalytic domain (UniProt Q08499 [S380-L740]); 50% inhibition of substrate cleavage; read-out: PDE4 IC50 range
Summary of the method: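 Readout is Tb-to-FAM time-resolved FRET after nanoparticle capture of AMP, the product of cleaving a cAMP/FAM-cAMP mixture by PDE4D catalytic domain (S380-L740) in the presence of titrated compound. Values are IC50 ranges in nM: concentration halving substrate cleavage relative to controls.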

human PDE4D catalytic domain, sequence (Q08499 380-740): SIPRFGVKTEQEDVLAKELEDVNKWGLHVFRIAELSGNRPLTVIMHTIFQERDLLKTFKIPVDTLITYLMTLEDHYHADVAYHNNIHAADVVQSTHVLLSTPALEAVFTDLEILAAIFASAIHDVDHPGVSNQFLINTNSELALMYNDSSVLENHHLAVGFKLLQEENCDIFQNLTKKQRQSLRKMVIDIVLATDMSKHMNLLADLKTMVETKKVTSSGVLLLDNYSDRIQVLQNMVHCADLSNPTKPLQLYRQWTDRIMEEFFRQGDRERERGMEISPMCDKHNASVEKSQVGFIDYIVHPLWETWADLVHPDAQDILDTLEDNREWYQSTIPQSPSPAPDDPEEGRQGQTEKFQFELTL

Row | Compound | IC50 [nM]
1 | CCn1nc(CCCCOC(=O)c2ccc(S(C)(=O)=O)cc2)c2c1C(=O)NCC1(CCOCC1)C2 [Example 130, 4-(1-ethyl-8-oxo-spiro[6,7-dihydro-4H-pyrazolo[3,4-c]azepine-5,4′-tetrahydropyran]-3-yl)butyl 4-methylsulfonyl-benzoate] | < 100
2 | CCn1nc(CCCCOC(=O)c2ccc(S(=O)(=O)NC)cc2)c2c1C(=O)NCC1(CCOCC1)C2 [Example 131, 4-(1-ethyl-8-oxo-spiro[6,7-dihydro-4H-pyrazolo[3,4-c]azepine-5,4′-tetrahydropyran]-3-yl)butyl 4-(methyl-sulfamoyl)benzoate] | < 100
3 | CCn1nc(CCCCOC(=O)c2ccc(S(=O)(=O)N(C)C)cc2)c2c1C(=O)NCC1(CCOCC1)C2 [Example 132, 4-(1-ethyl-8-oxo-spiro[6,7-dihydro-4H-pyrazolo[3,4-c]azepine-5,4′-tetrahydropyran]-3-yl)butyl 4-(dimethyl-sulfamoyl)benzoate] | < 100
4 | CCn1nc(CCCCOC(=O)c2ccc(C(=O)N3CCOCC3)cc2)c2c1C(=O)NCC1(CCOCC1)C2 [Example 133, 4-(1-ethyl-8-oxo-spiro[6,7-dihydro-4H-pyrazolo[3,4-c]azepine-5,4′-tetrahydropyran]-3-yl)butyl 4-(morpholine-4-carbonyl)benzoate] | < 100
5 | CCn1nc(CCOC(=O)C2CCCC2)c2c1C(=O)NCC1(CCOCC1)C2 [Example 134, 2-(1-ethyl-8-oxo-spiro-[6,7-dihydro-4H-pyrazolo-[3,4-c]azepine-5,4′-tetra-hydropyran]-3-yl)ethyl cyclopentanecarboxylate] | < 100
6 | CCn1nc(CCOC(=O)c2ccc(C)cc2)c2c1C(=O)NCC1(CCOCC1)C2 [Example 135, 2-(1-ethyl-8-oxo-spiro[6,7-dihydro-4H-pyrazolo[3,4-c]azepine-5,4′-tetrahydropyran]-3-yl)ethyl 4-methylbenzoate] | < 100
7 | CCn1nc(CCOC(=O)c2ccc(S(C)(=O)=O)cc2)c2c1C(=O)NCC1(CCOCC1)C2 [Example 136, 2-(1-ethyl-8-oxo-spiro-[6,7-dihydro-4H-pyrazolo-[3,4-c]azepine-5,4′-tetra-hydropyran]-3-yl)ethyl 4-methylsulfonylbenzoate] | < 100
8 | CCn1nc(C[C@@H](C)COC(=O)CCOC)c2c1C(=O)NCC1(CCOCC1)C2 [Example 137, [(2R)-3-(1-ethyl-8-oxo-spiro[6,7-dihydro-4H-pyrazolo[3,4-c]azepine-5,4′-tetrahydropyran]-3-yl)-2-methyl-propyl] 3-methoxypropanoate] | < 100
9 | CCn1nc(C[C@@H](C)COC(=O)[C@H]2C[C@@H](O)C2)c2c1C(=O)NCC1(CCOCC1)C2 [Example 138, [(2R)-3-(1-ethyl-8-oxo-spiro[6,7-dihydro-4H-pyrazolo[3,4-c]azepine-5,4′-tetrahydropyran]-3-yl)-2-methyl-propyl] 3-hydroxy-cyclobutanecarboxylate] | < 100
10 | CCn1nc(C[C@@H](C)COC(=O)CCSC)c2c1C(=O)NCC1(CCOCC1)C2 [Example 139, [(2R)-3-(1-ethyl-8-oxo-spiro[6,7-dihydro-4H-pyrazolo[3,4-c]azepine-5,4′-tetrahydropyran]-3-yl)-2-methyl-propyl] 3-methylsulfanylpropanoate] | < 100
11 | CCn1nc(C[C@@H](C)COC(=O)c2ccc(C)cc2)c2c1C(=O)NCC1(CCOCC1)C2 [Example 140, [(2R)-3-(1-ethyl-8-oxo-spiro[6,7-dihydro-4H-pyrazolo[3,4-c]azepine-5,4′-tetrahydropyran]-3-yl)-2-methyl-propyl] 4-methylbenzoate] | < 100
12 | CCn1nc(C[C@@H](C)COC(=O)c2ccccc2C)c2c1C(=O)NCC1(CCOCC1)C2 [Example 141, [(2R)-3-(1-ethyl-8-oxo-spiro[6,7-dihydro-4H-pyrazolo[3,4-c]azepine-5,4′-tetrahydropyran]-3-yl)-2-methyl-propyl] 2-methylbenzoate] | < 100
13 | CCn1nc(C[C@@H](C)COC(=O)c2cccc(C)c2)c2c1C(=O)NCC1(CCOCC1)C2 [Example 142, [(2R)-3-(1-ethyl-8-oxo-spiro[6,7-dihydro-4H-pyrazolo[3,4-c]azepine-5,4′-tetrahydropyran]-3-yl)-2-methyl-propyl] 3-methylbenzoate] | < 100
14 | CCn1nc(C[C@@H](C)COC(=O)c2cccc(F)c2)c2c1C(=O)NCC1(CCOCC1)C2 [Example 143, [(2R)-3-(1-ethyl-8-oxo-spiro[6,7-dihydro-4H-pyrazolo[3,4-c]azepine-5,4′-tetrahydropyran]-3-yl)-2-methyl-propyl] 3-fluorobenzoate] | < 100
15 | CCn1nc(C[C@@H](C)COC(=O)c2ccccc2F)c2c1C(=O)NCC1(CCOCC1)C2 [Example 144, [(2R)-3-(1-ethyl-8-oxo-spiro[6,7-dihydro-4H-pyrazolo[3,4-c]azepine-5,4′-tetrahydropyran]-3-yl)-2-methyl-propyl] 2-fluorobenzoate] | < 100
16 | CCn1nc(C[C@@H](C)COC(=O)c2ccc(F)cc2)c2c1C(=O)NCC1(CCOCC1)C2 [Example 145, [(2R)-3-(1-ethyl-8-oxo-spiro[6,7-dihydro-4H-pyrazolo[3,4-c]azepine-5,4′-tetrahydropyran]-3-yl)-2-methyl-propyl] 4-fluorobenzoate] | < 100
17 | CCn1nc(C[C@@H](C)COC(=O)[C@H]2CC[C@H](O)CC2)c2c1C(=O)NCC1(CCOCC1)C2 [Example 146, [(2R)-3-(1-ethyl-8-oxo-spiro[6,7-dihydro-4H-pyrazolo[3,4-c]azepine-5,4′-tetrahydropyran]-3-yl)-2-methyl-propyl] 4-hydroxy-cyclohexanecarboxylate] | < 100
18 | CCn1nc(C[C@@H](C)COC(=O)[C@H]2CC[C@@H](O)CC2)c2c1C(=O)NCC1(CCOCC1)C2 [Example 147, [(2R)-3-(1-ethyl-8-oxo-spiro[6,7-dihydro-4H-pyrazolo[3,4-c]azepine-5,4′-tetrahydropyran]-3-yl)-2-methyl-propyl] 4-hydroxy-cyclohexanecarboxylate] | < 100
19 | CCc1ccc(C(=O)OC[C@H](C)Cc2nn(CC)c3c2CC2(CCOCC2)CNC3=O)cc1 [Example 148, [(2R)-3-(1-ethyl-8-oxo-spiro[6,7-dihydro-4H-pyrazolo[3,4-c]azepine-5,4′-tetrahydropyran]-3-yl)-2-methyl-propyl] 4-ethylbenzoate] | < 100
20 | CCn1nc(C[C@@H](C)COC(=O)c2ccc(OC)cc2)c2c1C(=O)NCC1(CCOCC1)C2 [Example 149, [(2R)-3-(1-ethyl-8-oxo-spiro[6,7-dihydro-4H-pyrazolo[3,4-c]azepine-5,4′-tetrahydropyran]-3-yl)-2-methyl-propyl] 4-methoxybenzoate] | < 100
21 | CCn1nc(C[C@@H](C)COC(=O)c2cccc(OC)c2)c2c1C(=O)NCC1(CCOCC1)C2 [Example 150, [(2R)-3-(1-ethyl-8-oxo-spiro[6,7-dihydro-4H-pyrazolo[3,4-c]azepine-5,4′-tetrahydropyran]-3-yl)-2-methyl-propyl] 3-methoxybenzoate] | < 100
22 | CCn1nc(C[C@@H](C)COC(=O)c2ccccc2OC)c2c1C(=O)NCC1(CCOCC1)C2 [Example 151, [(2R)-3-(1-ethyl-8-oxo-spiro[6,7-dihydro-4H-pyrazolo[3,4-c]azepine-5,4′-tetrahydropyran]-3-yl)-2-methyl-propyl] 2-methoxybenzoate] | < 100
23 | CCn1nc(C[C@@H](C)COC(=O)CCS(C)(=O)=O)c2c1C(=O)NCC1(CCOCC1)C2 [Example 152, [(2R)-3-(1-ethyl-8-oxo-spiro[6,7-dihydro-4H-pyrazolo[3,4-c]azepine-5,4′-tetrahydropyran]-3-yl)-2-methyl-propyl] 3-methylsulfonylpropanoate] | < 100
24 | CCn1nc(C[C@@H](C)COC(=O)c2ccc(C(C)=O)cc2)c2c1C(=O)NCC1(CCOCC1)C2 [Example 153, [(2R)-3-(1-ethyl-8-oxo-spiro[6,7-dihydro-4H-pyrazolo[3,4-c]azepine-5,4′-tetrahydropyran]-3-yl)-2-methyl-propyl] 4-acetylbenzoate] | < 100
25 | CCn1nc(C[C@@H](C)COC(=O)c2cccc(C(C)=O)c2)c2c1C(=O)NCC1(CCOCC1)C2 [Example 154, [(2R)-3-(1-ethyl-8-oxo-spiro[6,7-dihydro-4H-pyrazolo[3,4-c]azepine-5,4′-tetrahydropyran]-3-yl)-2-methyl-propyl] 3-acetylbenzoate] | < 100
26 | CCn1nc(C[C@@H](C)COC(=O)c2ccc(S(C)(=O)=O)cc2)c2c1C(=O)NCC1(CCOCC1)C2 [Example 155, [(2R)-3-(1-ethyl-8-oxo-spiro[6,7-dihydro-4H-pyrazolo[3,4-c]azepine-5,4′-tetrahydropyran]-3-yl)-2-methyl-propyl] 4-methylsulfonylbenzoate] | < 100
27 | CCn1nc(C[C@@H](C)COC(=O)c2cccc(S(=O)(=O)CC)c2)c2c1C(=O)NCC1(CCOCC1)C2 [Example 156, [(2R)-3-(1-ethyl-8-oxo-spiro[6,7-dihydro-4H-pyrazolo[3,4-c]azepine-5,4′-tetrahydropyran]-3-yl)-2-methyl-propyl] 3-ethylsulfonylbenzoate] | < 100
28 | CCn1nc(C[C@@H](C)COC(=O)c2ccc(S(=O)(=O)CC)cc2)c2c1C(=O)NCC1(CCOCC1)C2 [Example 157, [(2R)-3-(1-ethyl-8-oxo-spiro[6,7-dihydro-4H-pyrazolo[3,4-c]azepine-5,4′-tetrahydropyran]-3-yl)-2-methyl-propyl] 4-ethylsulfonylbenzoate] | < 100
29 | CCn1nc(C[C@@H](C)COC(=O)c2ccc(S(=O)(=O)NC)cc2)c2c1C(=O)NCC1(CCOCC1)C2 [Example 158, [(2R)-3-(1-ethyl-8-oxo-spiro[6,7-dihydro-4H-pyrazolo[3,4-c]azepine-5,4′-tetrahydropyran]-3-yl)-2-methyl-propyl] 4-(methylsulfamoyl)benzoate] | < 100
